In patent publication US7045532B2 (Millennium Pharmaceuticals, Inc., priority 1999, dated 2006):
Where two headings read alike, the source gives them in different places.

Tests used:
[1] = molecular target: T1, ACE-2 (Homo sapiens, UniProt Q9BYF1); test: ACE-2 Competitive Substrate Assay (ACS Assay); assay type: biochemical
T1 construct: a stop codon inserted after the serine immediately preceding the transmembrane domain; made in house; host or cells: CHO K1 cells (transient transfection, purified from conditioned medium)
T1 sequence (Q9BYF1 18-740 limits assumed): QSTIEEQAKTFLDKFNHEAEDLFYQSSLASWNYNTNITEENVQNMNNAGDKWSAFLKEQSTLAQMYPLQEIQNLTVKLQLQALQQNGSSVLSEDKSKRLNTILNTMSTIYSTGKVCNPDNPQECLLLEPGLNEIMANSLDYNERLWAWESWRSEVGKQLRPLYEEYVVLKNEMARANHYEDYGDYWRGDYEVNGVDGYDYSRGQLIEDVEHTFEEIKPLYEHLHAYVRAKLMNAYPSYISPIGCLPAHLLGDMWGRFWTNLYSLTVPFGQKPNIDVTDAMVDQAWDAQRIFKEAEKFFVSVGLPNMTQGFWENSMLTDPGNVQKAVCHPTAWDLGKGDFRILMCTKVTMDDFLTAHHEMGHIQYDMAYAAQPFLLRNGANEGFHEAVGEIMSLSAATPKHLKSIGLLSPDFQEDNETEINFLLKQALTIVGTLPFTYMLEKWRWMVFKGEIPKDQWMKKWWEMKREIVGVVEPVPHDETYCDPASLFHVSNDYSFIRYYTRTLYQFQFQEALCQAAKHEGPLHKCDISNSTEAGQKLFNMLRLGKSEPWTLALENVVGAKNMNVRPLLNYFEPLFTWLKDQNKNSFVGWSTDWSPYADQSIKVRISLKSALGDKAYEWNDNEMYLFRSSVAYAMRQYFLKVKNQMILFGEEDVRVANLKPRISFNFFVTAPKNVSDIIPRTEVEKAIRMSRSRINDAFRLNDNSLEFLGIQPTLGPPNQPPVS

[2] = molecular target: ACE-2 (Rattus norvegicus, UniProt Q5EGZ1); test: ACE-2 Competitive Substrate Assay, rat ACE-2; assay type: biochemical; conditions: Ki class, compounds tested in 5% DMSO
ACE-2 (Rattus norvegicus, UniProt Q5EGZ1), sequence (Q5EGZ1 18-805): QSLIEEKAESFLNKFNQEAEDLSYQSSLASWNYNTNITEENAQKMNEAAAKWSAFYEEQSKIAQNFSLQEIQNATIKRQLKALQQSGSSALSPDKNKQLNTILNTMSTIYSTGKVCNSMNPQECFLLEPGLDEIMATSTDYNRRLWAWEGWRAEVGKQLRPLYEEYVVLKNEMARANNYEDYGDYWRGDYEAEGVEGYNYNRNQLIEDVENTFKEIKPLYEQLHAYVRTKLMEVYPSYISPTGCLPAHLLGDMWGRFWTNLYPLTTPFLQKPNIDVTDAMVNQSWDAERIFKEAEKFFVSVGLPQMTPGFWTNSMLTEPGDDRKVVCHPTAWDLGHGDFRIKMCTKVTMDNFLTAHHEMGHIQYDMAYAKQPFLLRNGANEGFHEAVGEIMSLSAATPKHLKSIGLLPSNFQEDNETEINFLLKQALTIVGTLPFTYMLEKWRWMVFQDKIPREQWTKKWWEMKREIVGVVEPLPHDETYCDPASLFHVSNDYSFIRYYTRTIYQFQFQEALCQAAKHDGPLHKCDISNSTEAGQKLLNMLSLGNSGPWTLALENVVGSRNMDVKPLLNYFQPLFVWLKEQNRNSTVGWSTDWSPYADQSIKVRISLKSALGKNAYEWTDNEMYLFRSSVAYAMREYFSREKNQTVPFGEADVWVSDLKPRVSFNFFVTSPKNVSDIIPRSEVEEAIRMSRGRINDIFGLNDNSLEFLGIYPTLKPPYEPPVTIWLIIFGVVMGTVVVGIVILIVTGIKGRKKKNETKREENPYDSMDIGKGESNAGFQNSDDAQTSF

[3] = molecular target: T2, ACE (Sigma, A2580) (Sus scrofa, UniProt F1RRW5); test: ACE enzymatic activity assay; assay type: biochemical, porcine; conditions: Ki class, compounds tested in 5% DMSO
T2 construct: ACE from porcine kidney; purchased Sigma A2580; host or cells: porcine kidney
T2 sequence (F1RRW5 34-1309): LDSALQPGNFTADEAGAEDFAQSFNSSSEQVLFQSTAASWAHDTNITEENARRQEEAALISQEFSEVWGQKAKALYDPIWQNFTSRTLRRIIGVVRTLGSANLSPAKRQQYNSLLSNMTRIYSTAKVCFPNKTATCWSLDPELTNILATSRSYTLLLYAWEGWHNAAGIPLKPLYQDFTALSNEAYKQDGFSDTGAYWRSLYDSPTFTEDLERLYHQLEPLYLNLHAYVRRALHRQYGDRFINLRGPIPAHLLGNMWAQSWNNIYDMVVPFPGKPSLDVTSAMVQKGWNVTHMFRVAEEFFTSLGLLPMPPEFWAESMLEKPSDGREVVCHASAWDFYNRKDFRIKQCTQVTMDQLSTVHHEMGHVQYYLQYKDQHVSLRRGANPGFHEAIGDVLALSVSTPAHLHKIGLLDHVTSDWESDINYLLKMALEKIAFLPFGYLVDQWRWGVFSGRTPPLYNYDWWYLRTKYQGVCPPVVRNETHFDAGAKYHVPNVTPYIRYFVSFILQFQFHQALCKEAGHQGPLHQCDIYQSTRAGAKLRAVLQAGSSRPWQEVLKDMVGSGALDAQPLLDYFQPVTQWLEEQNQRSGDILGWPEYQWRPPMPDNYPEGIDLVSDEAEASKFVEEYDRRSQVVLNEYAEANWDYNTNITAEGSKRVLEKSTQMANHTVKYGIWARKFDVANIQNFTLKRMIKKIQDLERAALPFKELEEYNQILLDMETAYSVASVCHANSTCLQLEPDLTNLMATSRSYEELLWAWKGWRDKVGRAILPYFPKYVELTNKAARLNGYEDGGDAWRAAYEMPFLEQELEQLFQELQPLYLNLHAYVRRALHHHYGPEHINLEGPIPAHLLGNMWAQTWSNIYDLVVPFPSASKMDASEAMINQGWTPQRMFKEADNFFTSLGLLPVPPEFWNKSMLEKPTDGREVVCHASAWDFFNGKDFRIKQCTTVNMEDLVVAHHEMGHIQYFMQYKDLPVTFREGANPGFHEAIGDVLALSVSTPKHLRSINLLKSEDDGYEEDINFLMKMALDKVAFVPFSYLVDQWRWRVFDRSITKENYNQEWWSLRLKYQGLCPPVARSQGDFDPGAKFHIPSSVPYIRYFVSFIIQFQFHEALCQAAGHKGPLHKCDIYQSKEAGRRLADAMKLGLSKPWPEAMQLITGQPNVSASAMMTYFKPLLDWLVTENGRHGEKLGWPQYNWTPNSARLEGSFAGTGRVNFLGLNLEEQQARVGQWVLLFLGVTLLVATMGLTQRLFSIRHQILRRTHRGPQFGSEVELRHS
Method in brief: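 ACE (1 nM final) in 50 mM HEPES, 300 mM NaCl, 0.01% Brij-35, pH 7.5, with compound in 5% DMSO at 12 concentrations, 25 °C. Substrate cleavage run ~30 min, stopped with EDTA; fluorescence read at excitation 320 nm, emission 405 nm.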

[4] = molecular target: T3, Carboxypeptidase A (Bos taurus, UniProt P00730); test: Carboxypeptidase A activity assay; assay type: biochemical; conditions: Ki class, compounds tested in 5% DMSO
T3 sequence (P00730 111-419): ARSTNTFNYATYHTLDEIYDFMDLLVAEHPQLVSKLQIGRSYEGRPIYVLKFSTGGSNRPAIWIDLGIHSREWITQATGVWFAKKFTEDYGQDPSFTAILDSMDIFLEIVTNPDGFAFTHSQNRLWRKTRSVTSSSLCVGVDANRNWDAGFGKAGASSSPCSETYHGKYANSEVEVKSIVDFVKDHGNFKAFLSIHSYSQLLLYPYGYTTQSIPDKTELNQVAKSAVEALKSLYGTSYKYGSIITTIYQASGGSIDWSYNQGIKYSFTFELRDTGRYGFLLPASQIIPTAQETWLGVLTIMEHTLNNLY
Method in brief: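 Bovine carboxypeptidase A activity followed at 328 nm in 5% DMSO, reaction stopped with EDTA. Activity measured at 12 compound concentrations. Ki derived from apparent Ki as Ki=Kiapp/(1+[S]/Km).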

[5] = Ki class, compounds tested in 5% DMSO, 12 concentrations, read-out: Human ACE-2 Activity
[6] = Ki class, compounds tested in 5% DMSO, 12 compound concentrations, Ki=Kiapp/(1+[S]/Km), read-out: Human ACE-2 Activity
[7] = Table 3, very good ACE-2 inhibiting compounds, species not given, read-out: ACE-2 Activity, Ki

| Ki [1, 5] [µM] | Ki ([2]; 12 concentrations) [µM] | Ki ([3]; 12 concentrations) [µM] | Ki ([4]; 12 concentrations) [µM] | Ki [1, 6] [µM] | Ki ([2]; 12 compound concentrations) [µM] | Ki ([3]; 12 compound concentrations) [µM] | Ki ([4]; 12 compound concentrations) [µM] | Ki [1, 7] [µM] | Structure (SMILES) |
| --- | --- | --- | --- | --- | --- | --- | --- | --- | --- |
| > 0.5 | > 0.5 | > 50 | > 50 | – | – | – | – | – | CC(C)CC(N[C@@H](Cc1c[nH]cn1)C(=O)Nc1ccc([N+](=O)[O-])cc1)C(=O)O (single isomer, unassigned) [EX, 2-[2-(1H-Imidazol-4-yl)-1-(4-nitro-phenylcarbamoyl)ethylamino]-4-methyl-pentanoic acid] |
| > 0.5 | 0.1 to 0.5 | > 50 | < 10 | – | – | – | – | – | O=C(O)[C@H](CC#Cc1ccccn1)N[C@@H](CCc1ccccc1)C(=O)O [EA, 2-(1-Carboxy-3-phenyl-propylamino)-5-pyridin-2-yl-pent-4-ynoic acid] |
| 0.1 to 0.5 | 0.1 to 0.5 | > 50 | > 50 | – | – | – | – | – | CC(C)CC(N[C@@H](Cc1cncn1COCc1ccccc1)C(=O)O)C(=O)O (stereo partly drawn) [DX, 2-[2-(3-Benzyloxymethyl-3H-imidazol-4-yl)-1-carboxy-ethylamino]-4-methyl-pentanoic acid] |
| > 0.5 | > 0.5 | > 50 | > 50 | – | – | – | – | – | CC(C)CC(N[C@H](Cc1cscn1)C(=O)O)C(=O)O (stereo partly drawn) [CV, 2-(1-Carboxy-2-thiazol-4-yl-ethylamino)-4-methyl-pentanoic acid] |
| > 0.5 | > 0.5 | > 50 | > 50 | – | – | – | – | – | NCCCC[C@H](NC(CCc1ccccc1)C(=O)O)C(=O)O (stereo partly drawn) [BU, 6-Amino-2-(1-carboxy-3-phenyl-propylamino)-hexanoic acid] |
| > 0.5 | > 0.5 | > 50 | > 50 | – | – | – | – | – | CC(C)(C)C[C@H](N[C@H](CCc1ccccc1)C(=O)O)C(=O)O [DD, 2-(1-Carboxy-3-phenyl-propylamino)-4,4-dimethylpentanoic acid] |
| – | – | – | – | < 0.1 | < 0.1 | 10 to 50 | 10 to 50 | – | CC(C)CC(N[C@@H](Cc1cncn1Cc1ccc(Cl)c(Cl)c1)C(=O)O)C(=O)O (single isomer, unassigned) [GW] |
| > 0.5 | > 0.5 | < 10 | > 50 | – | – | – | – | – | CC(C)CC(N[C@@H](Cc1c[nH]cn1)C(=O)NCC(=O)O)C(=O)O (stereo partly drawn) [FD, 2-[1-(Carboxymethyl-carbamoyl)-2-(1H-imidazol-4-yl)-ethylamino]4-methyl-pentanoic acid] |
| > 0.5 | 0.1 to 0.5 | 10 to 50 | > 50 | – | – | – | – | – | O=C(O)C(CCc1ccccc1)N[C@@H](Cc1c[nH]cn1)C(=O)O (stereo partly drawn) [DP, 2-[1-Carboxy-2-(1H-imidazol-4-yl)-ethylamino]4-phenyl-butync acid] |
| > 0.5 | > 0.5 | > 50 | > 50 | – | – | – | – | – | CC(C)CC(N[C@H](Cc1ccccn1)C(=O)O)C(=O)O (stereo in doubt) [BZ, 2-(1-Carboxy-2-pyridin-2-yl-ethylamino)-4-methyl-pentanoic acid] |
| > 0.5 | > 0.5 | > 50 | > 50 | – | – | – | – | – | O=C(O)C(Cc1ccc(O)cc1)N[C@@H](Cc1c[nH]cn1)C(=O)O (single isomer, unassigned) [DN, 2-[1-Carboxy-2-(4-hydroxy-phenyl)-ethylamino]-3-(1H-imidazol-4-yl)-propionic acid] |
| > 0.5 | > 0.5 | > 50 | > 50 | – | – | – | – | – | CC(C)CC(N[C@@H](Cc1cncn1COCc1ccccc1)C(=O)O)C(=O)O (single isomer, unassigned) [FG, 2-[2-(3-Benzyloxymethyl-3H-imidazol-4-yl)-1-carboxy-ethylamino]-4-methyl-pentanoic acid] |
| – | – | – | – | < 0.1 | 0.1 to 0.5 | < 10 | < 10 | 0.05 to 0.1 | CC(C)CC(N[C@@H](Cc1cncn1Cc1ccc(C(C)C)cc1)C(=O)O)C(=O)O (single isomer, unassigned) [HU, 2-[1-Carboxy-2-[3-(4-isopropyl-benzyl)-3H-imidazol-4-yl]-ethylamino)4-methyl-pentanoic acid] |
| < 0.1 | < 0.1 | > 50 | 10 to 50 | – | – | – | – | – | CC(C)CC(N[C@@H](Cc1cncn1Cc1ccc(C(F)(F)F)cc1)C(=O)O)C(=O)O (stereo partly drawn) [GI, 2-[1-Carboxy-2-[3-(4-trifluoromethyl-benzyl)-imidazol-4-yl]-ethylamino]-4-methyl-pentanoic acid] |
| > 0.5 | > 0.5 | 10 to 50 | > 50 | – | – | – | – | – | CC(C)CC(N[C@@H](Cc1cn(-c2ccc([N+](=O)[O-])cc2[N+](=O)[O-])cn1)C(=O)O)C(=O)O (stereo in doubt) [EG, 2-[1-Carboxy-2-[1-(2,4-dinitro-phenyl)-1H-imidazol-4-yl]-ethylamino)4-methyl-pentanoic acid] |
| – | – | – | – | < 0.1 | < 0.1 | 10 to 50 | 10 to 50 | < 0.05 | Cc1cccc(Cn2cncc2C[C@H](NC(CC(C)C)C(=O)O)C(=O)O)c1 (single isomer, unassigned) [HO, 2-[1-Carboxy-2-[3-(3-methyl-benzyl)-3H-imidazol-4-yl]-ethylamino]4-methyl-pentanoic acid] |
| – | – | – | – | < 0.1 | < 0.1 | 10 to 50 | 10 to 50 | < 0.05 | Cc1ccc(Cn2cncc2C[C@H](NC(CC(C)C)C(=O)O)C(=O)O)cc1 (single isomer, unassigned) [HG, 2-[1-Carboxy-2-[3-(4-methyl-benzyl)-3H-imidazol-4-yl]-ethylamino)4-methyl-pentanoic acid] |
| > 0.5 | > 0.5 | > 50 | > 50 | – | – | – | – | – | CC(C)C[C@H](N[C@H](CCc1ccccc1)C(=O)O)C(=O)O [E, 2-(1-Carboxy-3-phenyl-propylamino)-4-methyl-pentanoic acid] |
| > 0.5 | > 0.5 | > 50 | 10 to 50 | – | – | – | – | – | COC(=O)[C@H](CC(C)C)NCC(=O)[C@H](Cc1ccccc1)NC(=O)OCc1ccccc1 [DI, 2-(3-Benzyloxycarbonylamino-2-oxo-4-phenyl-butylamino)-4-methyl-pentanoic acid methylester] |
| > 0.5 | > 0.5 | > 50 | > 50 | – | – | – | – | – | CC(C)CC(N[C@@H](Cc1cn(Cc2ccccc2)cn1)C(=O)O)C(=O)O (single isomer, unassigned) [DL, 2-[2-(1-Benzyl-1H-imidazol-4-yl)-1-carboxy-ethylamino]-4-methyl-pentanoic acid] |
| > 0.5 | 0.1 to 0.5 | > 50 | 10 to 50 | – | – | – | – | – | CC(C)CC(N[C@@H](Cc1cn(Cc2ccc(C(F)(F)F)cc2)cn1)C(=O)O)C(=O)O (stereo partly drawn) [EL, 2-{1-Carboxy-2-[1-(4-trifluoromethyl-benzyl)-1H-imidazol-4-yl}-ethylamino]4-methyl-pentanoic acid] |
